Measured values reported in patent US12180187B2, “1-phenyl-5-azinylpyrazolyl-3-oxyalkyl acids and their use for controlling unwanted plant growth” (BAYER AKTIENGESELLSCHAFT, priority 2019, dated 2024).

Columns and labels:
LOLRI [1] = assay: Pre-emergence action at 320 g/ha against LOLRI; type: in vivo, Lolium rigidum; conditions: visual scoring after about 3 weeks vs untreated controls
Summary of the method: (§1)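 Sow seeds, cover with soil, spray soil surface (WP/EC, 0.5% additive, 600 l/ha water), hold in greenhouse ~3 wk, then rate % activity visually against untreated controls.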

ECHCG [2] = assay: Pre-emergence action against ECHCG, 1280 g/ha; type: in vivo, Echinochloa crus-galli; conditions: visual scoring after about 3 weeks vs untreated controls, 100% = plants have died, 0% = like control plants
Summary of the method: (§2)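 Sandy loam pots, seeds covered with soil; aqueous WP/EC spray on covering soil, 0.5% additive, 600 L/ha. Greenhouse growth, good conditions. Readout: visual % activity at ~3 weeks (0% = like control, 100% = dead).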

POLCO = assay: Pre-emergence action at 320 g/ha against POLCO; type: in vivo, Fallopia convolvulus (Polygonum convolvulus); conditions: visual scoring after about 3 weeks vs untreated controls
Summary of the method: as §1

ALOMY [3] = assay: Pre-emergence action at 320 g/ha against ALOMY; type: in vivo, Alopecurus myosuroides; conditions: scored visually after about 3 weeks vs untreated controls (100% = plants have died)
Summary of the method: as §1

SETVI [4] = assay: Post-emergence action against SETVI, 1.28 kg/ha; type: in vivo, Setaria viridis; conditions: dosage 1280 g/ha, visual rating about 3 weeks after treatment vs untreated controls
Summary of the method: (§3)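 Foliar application at the one-leaf stage: compound as WP or EC in water with 0.5% additive, sprayed at 600 L/ha. Plants are kept about 3 weeks in the greenhouse, then % herbicidal action is estimated visually (100% = death).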

DIGSA [5] = assay: Pre-emergence action against DIGSA, 1280 g/ha; type: in vivo, Digitaria sanguinalis; conditions: visual scoring after about 3 weeks vs untreated controls, 100% = plants have died, 0% = like control plants
Summary of the method: as §2

VERPE [6] = assay: Pre-emergence action against VERPE, 1280 g/ha; type: in vivo, Veronica persica; conditions: scored visually after about 3 weeks vs untreated controls (100% = plants have died)
Summary of the method: as §2

LOLRI [7] = assay: Post-emergence action against LOLRI, 1.28 kg/ha; type: in vivo, Lolium rigidum; conditions: dosage 1280 g/ha, visual rating about 3 weeks after treatment vs untreated controls
Summary of the method: as §3

VIOTR = assay: Pre-emergence action at 320 g/ha against VIOTR; type: in vivo, Viola tricolor; conditions: dosage 320 g/ha
Summary of the method: as §1

ABUTH = assay: Post-emergence action against ABUTH, 1.28 kg/ha; type: in vivo, Abutilon theophrasti; conditions: dosage 1280 g/ha, visual rating about 3 weeks after treatment vs untreated controls (100% = plants died)
Summary of the method: as §3

DIGSA [8] = assay: Post-emergence action against DIGSA, 1.28 kg/ha; type: in vivo, Digitaria sanguinalis; conditions: dosage 1280 g/ha, visual rating about 3 weeks after treatment vs untreated controls
Summary of the method: as §3

SETVI [9] = assay: Pre-emergence action against SETVI, 1280 g/ha; type: in vivo, Setaria viridis; conditions: visual scoring after about 3 weeks vs untreated controls, 100% = plants have died, 0% = like control plants
Summary of the method: as §2

SETVI [10] = assay: Post-emergence action at 320 g/ha against SETVI; type: in vivo, Setaria viridis; conditions: visual rating about 3 weeks after treatment vs untreated controls
Source text: (§4) Accordingly, the compounds of the invention have good herbicidal action against a broad spectrum of weed grasses and broad-leaved weeds and are therefore suitable for controlling unwanted vegetation by the post-emergence method. • b) Seeds of monocotyledonous and dicotyledonous weeds and crop plants are placed in sandy loam in plastic or organic planting pots, covered with soil and cultivated in a greenhouse under controlled growth conditions. 2 to 3 weeks after sowing, the test plants are treated at the one-leaf stage. The compounds of the invention, formulated in the form of wettable powders (WP) or as emulsion concentrates (EC), are then sprayed onto the green parts of the plants as aqueous suspension or emulsion with addition of 0.5% additive at a water application rate of 600 l/ha (converted). After the test plants have been kept in the greenhouse under optimum growth conditions for about 3 weeks, the activity of the preparations is rated visually in comparison to untreated controls. For example, 100% activity=the plants have died, 0% activity=like control plants. Tables 39 to 49 below show the effects of selected compounds of the general formula (I) according to Tables 1 and 2 on various harmful plants and at an application rate corresponding to 320 g/ha, which were obtained by the experimental procedure mentioned above.

MATIN [11] = assay: Pre-emergence action at 320 g/ha against MATIN; type: in vivo, Tripleurospermum inodorum (Matricaria inodora); conditions: visual scoring after about 3 weeks vs untreated controls
Summary of the method: as §1

LOLRI [12] = assay: Pre-emergence action against LOLRI, 1280 g/ha; type: in vivo, Lolium rigidum; conditions: visual scoring after about 3 weeks vs untreated controls, 100% = plants have died, 0% = like control plants
Summary of the method: as §2

MATIN [13] = assay: Post-emergence action against MATIN, 1.28 kg/ha; type: in vivo, Tripleurospermum inodorum (Matricaria inodora); conditions: dosage 1280 g/ha, visual rating about 3 weeks after treatment vs untreated controls (100% = plants died)
Summary of the method: as §3

DIGSA [14] = assay: Pre-emergence action at 320 g/ha against DIGSA; type: in vivo, Digitaria sanguinalis; conditions: visual scoring after about 3 weeks vs untreated controls
Summary of the method: as §1

MATIN [15] = assay: Pre-emergence action against MATIN, 1280 g/ha; type: in vivo, Tripleurospermum inodorum (Matricaria inodora); conditions: scored visually after about 3 weeks vs untreated controls (100% = plants have died)
Summary of the method: as §2

POAAN [16] = assay: Pre-emergence action against POAAN, 1280 g/ha; type: in vivo, Poa annua; conditions: visual scoring after about 3 weeks vs untreated controls, 100% = plants have died, 0% = like control plants
Summary of the method: as §2

VERPE [17] = assay: Pre-emergence action at 320 g/ha against VERPE; type: in vivo, Veronica persica; conditions: visual scoring after about 3 weeks vs untreated controls
Summary of the method: as §1

AMARE [18] = assay: Pre-emergence action against AMARE, 1280 g/ha; type: in vivo, Amaranthus retroflexus; conditions: scored visually after about 3 weeks vs untreated controls (100% = plants have died)
Summary of the method: as §2

VERPE [19] = assay: Post-emergence action against VERPE, 1.28 kg/ha; type: in vivo, Veronica persica; conditions: dosage 1280 g/ha, visual rating about 3 weeks after treatment vs untreated controls (100% = plants died)
Summary of the method: as §3

AMARE [20] = assay: Post-emergence action against AMARE, 1.28 kg/ha; type: in vivo, Amaranthus retroflexus; conditions: dosage 1280 g/ha, visual rating about 3 weeks after treatment vs untreated controls (100% = plants died)
Summary of the method: as §3

ALOMY [21] = assay: Post-emergence action against ALOMY, 320 g/ha; type: in vivo, Alopecurus myosuroides; conditions: dosage 320 g/ha, visual rating about 3 weeks after treatment vs untreated controls (100% = plants died)
Source text: as §4

POAAN [22] = assay: Post-emergence action against POAAN, 1.28 kg/ha; type: in vivo, Poa annua; conditions: dosage 1280 g/ha, visual rating about 3 weeks after treatment vs untreated controls
Summary of the method: as §3

ALOMY [23] = assay: Pre-emergence action against ALOMY, 1280 g/ha; type: in vivo, Alopecurus myosuroides; conditions: visual scoring after about 3 weeks vs untreated controls, 100% = plants have died, 0% = like control plants
Summary of the method: as §2

ALOMY [24] = assay: Post-emergence action against ALOMY, 1.28 kg/ha; type: in vivo, Alopecurus myosuroides; conditions: dosage 1280 g/ha, visual rating about 3 weeks after treatment vs untreated controls
Summary of the method: as §3

ECHCG [25] = assay: Post-emergence action against ECHCG, 1.28 kg/ha; type: in vivo, Echinochloa crus-galli; conditions: dosage 1280 g/ha, visual rating about 3 weeks after treatment vs untreated controls
Summary of the method: as §3

ECHCG [26] = assay: Post-emergence action at 320 g/ha against ECHCG; type: in vivo, Echinochloa crus-galli; conditions: dosage 320 g/ha, visual rating about 3 weeks after treatment vs untreated controls (100% = plants died)
Source text: as §4

AMARE [27] = assay: Pre-emergence action at 320 g/ha against AMARE; type: in vivo, Amaranthus retroflexus; conditions: visual scoring after about 3 weeks vs untreated controls
Summary of the method: as §1

STEME = assay: Pre-emergence action against STEME, 1280 g/ha; type: in vivo, Stellaria media; conditions: scored visually after about 3 weeks vs untreated controls (100% = plants have died)
Summary of the method: as §2

AVEFA = assay: Pre-emergence action at 320 g/ha against AVEFA; type: in vivo; conditions: visual scoring after about 3 weeks vs untreated controls
Summary of the method: as §1

CCOC(=O)COc1nn(-c2ccccc2C)c(-c2ccc(F)nc2)c1Br [VII-056-a]
80%: Post-emergence action against SETVI in % (SETVI [10]) | Pre-emergence action against MATIN in % (MATIN [11]) | Post-emergence action at 320 g/ha against ECHCG in % (ECHCG [26])
100%: Pre-emergence action against ECHCG (ECHCG [2]) | Pre-emergence action at 320 g/ha against ALOMY in % (ALOMY [3]) | Post-emergence action against SETVI (SETVI [4]) | Pre-emergence action against DIGSA (DIGSA [5]) | Pre-emergence action against VERPE (VERPE [6]) | Post-emergence action against LOLRI (LOLRI [7]) | Pre-emergence action against VIOTR in % (VIOTR) | Post-emergence action against DIGSA (DIGSA [8]) | Pre-emergence action against SETVI (SETVI [9]) | Post-emergence action against MATIN (MATIN [13]) | Pre-emergence action against DIGSA in % (DIGSA [14]) | Pre-emergence action against MATIN (MATIN [15]) | Pre-emergence action against POAAN (POAAN [16]) | Pre-emergence action against VERPE in % (VERPE [17]) | Pre-emergence action against AMARE (AMARE [18]) | Post-emergence action against VERPE (VERPE [19]) | Post-emergence action against AMARE (AMARE [20]) | Post-emergence action against POAAN (POAAN [22]) | Post-emergence action against ALOMY (ALOMY [24]) | Post-emergence action against ECHCG (ECHCG [25]) | Pre-emergence action against AMARE in % (AMARE [27]) | Pre-emergence action against STEME (STEME)
90%: Pre-emergence action against LOLRI in % (LOLRI [1]) | Pre-emergence action against POLCO in % (POLCO) | Post-emergence action against ABUTH (ABUTH) | Pre-emergence action against LOLRI (LOLRI [12]) | Post-emergence action against ALOMY (ALOMY [21]) | Pre-emergence action against ALOMY (ALOMY [23]) | Pre-emergence action against AVEFA in % (AVEFA)
